This is an account of results in US20090022806A1, “Nanoparticle and polymer formulations for thyroid hormone analogs, antagonists and formulations and uses thereof” (priority 2006, published 2009).

The structures appear in SMILES notation.

Test [1] concerns the target T1, purified αVβ3 integrin (Homo sapiens, UniProt P05106+P06756).
T1 construct: purchased
Nature of the test: Radioligand binding assay, [125I]-T4 to purified integrin. The procedure:
Two μg of purified αVβ3 was mixed with indicated concentrations of test compounds and allowed to incubate for 30 min at room temperature. […] The samples were mixed with sample buffer (50% glycerol, 0.1M Tris-HCl, pH 6.8, and bromophenol blue) and runout on a 5% basic-native gel for 24 h at 45 mA in the cold. The apparatus was disassembled and the gels were placed on filter paper, wrapped in plastic wrap, and exposed to film. Band intensity was determined using the VersaDoc 5000 Imaging system.

Test [2] relates to Human dermal micro-vascular endothelial cells (HDMEC). Nature of the test: Three-dimensional human micro-vascular endothelial sprouting assay. Format: cell-based. The procedure:
In Vitro Three-Dimensional Sprout Angiogenesis of Human Dermal Micro-Vascular Endothelial Cells (HDMEC) Cultured on Micro-Carrier Beads Coated with Fibrin: Confluent HDMEC (passages 5-10) were mixed with gelatin-coated Cytodex-3 beads with a ratio of 40 cells per bead. Cells and beads (150-200 beads per well for 24-well plate) were suspended with 5 ml EBM+15% normal human serum, mixed gently every hour for first 4 hours, then left to culture in a CO2 incubator overnight. The next day, 10 ml of fresh EBM+5% HS were added, and the mixture was cultured for another 3 hours. Before experiments, the culture of EC-beads was checked; then 500 ul of PBS was added to a well of 24-well plate, and 100 ul of the EC-bead culture solution was added to the PBS. The number of beads was counted, and the concentration of EC/beads was calculated.
A fibrinogen solution (1 mg/ml) in EBM medium with or without angiogenesis factors or testing factors was prepared. For positive control, 50 ng/ml VEGF+25 ng/ml FGF2 was used. EC-beads were washed with EBM medium twice, and EC-beads were added to fibrinogen solution. The experiment was done in triplicate for each condition. The EC-beads were mixed gently in fibrinogen solution, and 2.5 ul human thrombin (0.05 U/ul) was added in 1 ml fibrinogen solution; 300 ul was immediately transferred to each well of a 24-well plate. The fibrinogen solution polymerizes in 5-10 minutes; after 20 minutes, we added EBM+20% normal human serum+10 ug/ml aprotinin. The plate was incubated in a CO2 incubator. It takes about 24-48 hours for HDMEC to invade fibrin gel and form tubes.
A micro-carrier in vitro angiogenesis assay previously designed to investigate bovine pulmonary artery endothelial cell angiogenic behavior in bovine fibrin gels [Nehls and Drenckhahn, 1995a, b] was modified for the study of human microvascular endothelial cell angiogenesis in three-dimensional ECM environments (FIGS. 1 and 2). Briefly, human fibrinogen, isolated as previously described [Feng et al, 1999], was dissolved in M199 medium at a concentration of 1 mg/ml (pH 7.4) and sterilized by filtering through a 0.22 micron filter. An isotonic 1.5 mg/ml collagen solution was prepared by mixing sterile Vitrogen 100 in 5×M199 medium and distilled water. The pH was adjusted to 7.4 by 1N NaOH. In certain experiments, growth factors and ECM proteins (such as VEGF, bFGF, PDGF-BB, serum, gelatin, and fibronectin) were added to the fibrinogen or collagen solutions. About 500 EC-beads were then added to the 1 mg/ml fibrinogen or 1.5 mg/ml collagen solutions. Subsequently, EC-beads-collagen or EC-beads-fibrinogen suspension (500 EC-beads/ml) was plated onto 24-well plates at 300 ul/well. EC-bead-collagen cultures were incubated at 37° C. to form gel. The gelling of EC-bead-fibrin cultures occurred in less than 5 minutes at room temperature after the addition of thrombin to a final concentration of 0.5 U/ml. After gelation, 1 ml of fresh assay medium (EBM supplemented with 20% normal human serum for HDMEC or EBM supplemented with 10% fetal bovine serum was added to each well. The angiogenic response was monitored visually and recorded by video image capture. Specifically, capillary sprout formation was observed and recorded with a Nikon Diaphot-TMD inverted microscope (Nikon Inc.; Melville, N.Y.), equipped with an incubator housing with a Nikon NP-2 thermostat and Sheldon #2004 carbon dioxide flow mixer. The microscope was directly interfaced to a video system consisting of a Dage-MTI CCD-72S video camera and Sony 12″ PVM-122 video monitor linked to a Macintosh G3 computer. The images were captured at various magnifications using Adobe Photoshop. The effect of angiogenic factors on sprout angiogenesis was quantified visually by determining the number and percent of EC-beads with capillary sprouts. One hundred beads (five to six random low power fields) in each of triplicate wells were counted for each experimental condition. All experiments were repeated at least three times. […]

Where [3] appears, read: hormone 0.1 uM alone, pretreated FGF2 1.25 ng/ml + VEGF […], day 3.

T1 sequence (P06756 31-889 limits assumed): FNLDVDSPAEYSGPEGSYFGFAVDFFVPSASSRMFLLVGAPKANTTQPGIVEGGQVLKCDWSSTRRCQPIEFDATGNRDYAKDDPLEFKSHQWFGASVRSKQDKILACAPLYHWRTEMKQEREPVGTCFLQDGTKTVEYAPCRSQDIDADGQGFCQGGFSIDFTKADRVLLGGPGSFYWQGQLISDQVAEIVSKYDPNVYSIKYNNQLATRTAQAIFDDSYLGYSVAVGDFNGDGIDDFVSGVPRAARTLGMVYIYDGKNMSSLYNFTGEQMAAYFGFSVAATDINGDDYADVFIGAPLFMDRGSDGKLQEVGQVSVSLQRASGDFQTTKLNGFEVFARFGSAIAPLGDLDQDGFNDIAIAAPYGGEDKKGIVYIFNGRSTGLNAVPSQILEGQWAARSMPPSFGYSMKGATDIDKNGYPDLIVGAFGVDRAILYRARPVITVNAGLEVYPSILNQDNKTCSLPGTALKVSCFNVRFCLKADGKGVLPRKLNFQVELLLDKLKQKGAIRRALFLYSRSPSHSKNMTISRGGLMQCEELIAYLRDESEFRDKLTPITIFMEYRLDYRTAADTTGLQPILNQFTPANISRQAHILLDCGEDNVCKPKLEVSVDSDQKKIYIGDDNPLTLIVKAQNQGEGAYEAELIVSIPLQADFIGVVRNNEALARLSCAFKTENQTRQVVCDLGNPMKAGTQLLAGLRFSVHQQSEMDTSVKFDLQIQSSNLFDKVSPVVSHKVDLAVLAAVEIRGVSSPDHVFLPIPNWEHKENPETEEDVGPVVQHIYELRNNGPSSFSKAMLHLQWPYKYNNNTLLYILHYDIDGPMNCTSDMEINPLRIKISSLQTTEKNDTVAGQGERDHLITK
T1 sequence (P06756 891-1048 partner limits assumed): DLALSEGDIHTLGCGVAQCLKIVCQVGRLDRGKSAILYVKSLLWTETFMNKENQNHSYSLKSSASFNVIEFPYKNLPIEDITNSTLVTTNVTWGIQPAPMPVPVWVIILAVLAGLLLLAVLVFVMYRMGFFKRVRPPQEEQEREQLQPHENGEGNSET
T1 sequence (P05106 27-788): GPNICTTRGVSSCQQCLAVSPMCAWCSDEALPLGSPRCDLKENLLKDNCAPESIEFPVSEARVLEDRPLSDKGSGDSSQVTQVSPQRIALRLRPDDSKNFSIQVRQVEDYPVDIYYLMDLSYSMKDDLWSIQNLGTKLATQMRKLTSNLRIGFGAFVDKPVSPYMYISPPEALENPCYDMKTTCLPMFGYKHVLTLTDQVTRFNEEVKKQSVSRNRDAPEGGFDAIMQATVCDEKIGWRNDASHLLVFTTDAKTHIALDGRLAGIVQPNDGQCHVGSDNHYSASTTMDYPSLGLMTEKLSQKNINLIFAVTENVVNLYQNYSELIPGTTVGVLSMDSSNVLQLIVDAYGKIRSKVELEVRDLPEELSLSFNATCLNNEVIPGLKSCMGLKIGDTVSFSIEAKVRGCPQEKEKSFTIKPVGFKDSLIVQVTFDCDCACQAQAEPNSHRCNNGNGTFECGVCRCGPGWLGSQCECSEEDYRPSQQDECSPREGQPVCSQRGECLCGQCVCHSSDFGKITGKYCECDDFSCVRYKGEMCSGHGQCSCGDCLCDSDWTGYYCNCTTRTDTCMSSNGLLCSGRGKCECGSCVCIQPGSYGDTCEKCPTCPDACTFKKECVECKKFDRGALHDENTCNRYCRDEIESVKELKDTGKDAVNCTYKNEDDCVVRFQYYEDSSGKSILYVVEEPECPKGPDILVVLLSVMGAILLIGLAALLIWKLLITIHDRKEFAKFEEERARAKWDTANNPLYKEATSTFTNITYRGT

As for `N[C@@H](Cc1cc(I)c(Oc2cc(I)c(O)c(I)c2)c(I)c1)C(=O)O` [T4, L-thyroxine], the “reduction of [125I]T4 binding to purified αVβ3” value is on record as “almost completely displaced” in test [1] (competitor 10^−4 M), “maximal” in test [1] (competitor 10^−5 M), 58% in test [1] (competitor 10^−6 M (total)) and 13% in test [1] (competitor 10^−7 M (total)). The EC50 – broadly, the concentration that produces a half-maximal response – in test [1] (non-linear regression) came out at 0.371 nM. The Kd (commonly the equilibrium constant for the complex coming apart) in test [1] (non-linear regression) was 0.333 nM. Besides, in test [2] (0.01-0.1 μM), the stimulation of angiogenesis entry is given as “significant (P<0.01) stimulation of angiogenesis”. Moreover, in test [2] (FGF2 25 ng + VEGF 50 ng, T3 20 ng, T4 23 ng, T4-agarose 23 ng, pre-treated with FGF2 1.25 ng/ml + VEGF […]), the “Mean Tube Vessel Length (mm) ± SD” value is given as 1.65 ± 0.15 mm. The “Mean number of Migrated cells ± SD” value in test [2] (setting [3]) worked out at 182 ± 11. For the same molecule, in test [2] (setting [3]), the “Mean vessel Length (mm) ± SD” value was determined as 1.16 ± 0.21 mm.
